Source: ChEMBL document CHEMBL1201862, “PubChem BioAssay data set” (2004)
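48-hour exposure; five concentrations; linearly interpolated endpoints. GI50 = concentration required for 50% inhibition of growth.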 Calls of active or inactive are those of the source. Cut-off read from the data, not from the text of the source: active = GI50 up to about 1.1 µM and inactive = higher.

Columns and labels:
Experiment in all cases: growth of human tumour cells (NCI), 48 h
NCI/ADR-RES = system: NCI/ADR-RES
OVCAR-8 = system: OVCAR-8
SN12C = system: SN12C
SW-620 = system: SW-620
DU-145 = system: DU-145
HOP-92 = system: HOP-92
NCI-H460 = system: NCI-H460
CAKI-1 = system: CAKI-1
SK-MEL-2 = system: SK-MEL-2
786-0 = system: 786-0
M14 = system: M14
U-251 = system: U-251
EKVX = system: EKVX
RPMI-8226 = system: RPMI-8226
SF-295 = system: SF-295
MDA-MB-435 = system: MDA-MB-435
NCI-H226 = system: NCI-H226
SK-OV-3 = system: SK-OV-3
UACC-62 = system: UACC-62

Measured: GI50

COc1ccc(CNC(=O)NCn2cc(-c3ccccc3)nn2)cc1
inactive: NCI/ADR-RES > 100 µM | OVCAR-8 > 100 µM | SN12C > 100 µM | SW-620 > 100 µM | DU-145 > 100 µM | HOP-92 > 100 µM | NCI-H460 > 100 µM | CAKI-1 > 100 µM | SK-MEL-2 > 100 µM | 786-0 > 100 µM | M14 > 100 µM | U-251 > 100 µM | EKVX > 100 µM | RPMI-8226 > 100 µM | SF-295 > 100 µM | MDA-MB-435 > 100 µM

Cc1cc2c(cc1Cl)S(=O)(=O)OC(c1ccc([N+](=O)[O-])cc1)=N2
inactive: NCI/ADR-RES > 100 µM | NCI-H226 > 100 µM | OVCAR-8 > 100 µM | SN12C > 100 µM | SW-620 > 100 µM | DU-145 > 100 µM | HOP-92 > 100 µM | SK-OV-3 > 100 µM | NCI-H460 > 100 µM | UACC-62 > 100 µM | CAKI-1 > 100 µM | 786-0 > 100 µM | M14 > 100 µM | U-251 > 100 µM | EKVX > 100 µM | RPMI-8226 > 100 µM | SF-295 > 100 µM | MDA-MB-435 > 100 µM

Nc1ncnc2c1ncn2C1OC(COC2C(CO)OC(OC(C(=O)O)C(O)C(OP(=O)(O)O)C(O)C(=O)O)C(O)C2O)C(O)C1O (centres undefined)
inactive: NCI-H226 > 100 µM | OVCAR-8 > 100 µM | SW-620 > 100 µM | SK-OV-3 > 100 µM | NCI-H460 > 100 µM | CAKI-1 > 100 µM | SK-MEL-2 > 100 µM | 786-0 > 100 µM | M14 > 100 µM | U-251 > 100 µM | EKVX > 100 µM | RPMI-8226 > 100 µM | SF-295 > 100 µM | MDA-MB-435 > 100 µM

CCOC(=O)c1ccc(Nc2nc3ccc(C(F)(F)F)cc3nc2-c2ccccc2)cc1
inactive: NCI/ADR-RES > 100 µM | NCI-H226 > 100 µM | OVCAR-8 > 100 µM | SN12C 74.8 µM | SW-620 > 100 µM | DU-145 > 100 µM | NCI-H460 > 100 µM | UACC-62 28.2 µM | CAKI-1 > 100 µM | 786-0 > 100 µM | M14 > 100 µM | U-251 53 µM | EKVX > 100 µM | RPMI-8226 > 100 µM | SF-295 56.8 µM | MDA-MB-435 > 100 µM

Nc1cc(N2CCCC2)nc(=O)n1-c1ccccc1
inactive: NCI/ADR-RES > 100 µM | NCI-H226 54.2 µM | OVCAR-8 > 100 µM | SN12C > 100 µM | SW-620 > 100 µM | DU-145 > 100 µM | HOP-92 > 100 µM | NCI-H460 > 100 µM | CAKI-1 > 100 µM | SK-MEL-2 > 100 µM | 786-0 > 100 µM | M14 > 100 µM | U-251 > 100 µM | EKVX > 100 µM | RPMI-8226 > 100 µM | SF-295 > 100 µM | MDA-MB-435 > 100 µM

CN(C)CCNc1ccc(NCCN(C)C)c2c1C(=O)c1ncsc1C2=O
inactive: NCI/ADR-RES 35.7 µM | NCI-H226 2.53 µM | OVCAR-8 12.5 µM | SN12C 10.9 µM | SW-620 9.82 µM | DU-145 13.2 µM | HOP-92 15.2 µM | SK-OV-3 18.8 µM | UACC-62 11.4 µM | CAKI-1 16.9 µM | SK-MEL-2 20.2 µM | 786-0 9.1 µM | M14 18.2 µM | U-251 14 µM | EKVX 12.3 µM | RPMI-8226 10.6 µM | SF-295 12.8 µM | MDA-MB-435 13.6 µM

C[n+]1c2ccccc2c(CNC(CS)C(=O)O)c2ccccc21 (centres undefined)
inactive: NCI-H226 29.8 µM | OVCAR-8 25.4 µM | SN12C 30.5 µM | SW-620 32.4 µM | HOP-92 18.7 µM | SK-OV-3 23.1 µM | NCI-H460 21.8 µM | UACC-62 14.6 µM | CAKI-1 29.6 µM | SK-MEL-2 26.8 µM | 786-0 31.8 µM | M14 38.9 µM | U-251 24.2 µM | EKVX 19 µM | RPMI-8226 16.9 µM | SF-295 24.2 µM

C=C1CCC(OC(C)=O)C2(C)C(OC(C)=O)CC3OC3(C)C2C(OC(C)=O)C2C(C)C(=O)OC2C1Cl (centres undefined)
inactive: NCI-H226 > 100 µM | OVCAR-8 > 100 µM | SN12C > 100 µM | SW-620 > 100 µM | HOP-92 > 100 µM | SK-OV-3 > 100 µM | NCI-H460 > 100 µM | UACC-62 > 100 µM | CAKI-1 > 100 µM | SK-MEL-2 > 100 µM | 786-0 > 100 µM | M14 > 100 µM | U-251 > 100 µM | EKVX > 100 µM | RPMI-8226 > 100 µM | SF-295 > 100 µM

Clc1cc2ccccc2c2ccccc12
inactive: NCI/ADR-RES > 100 µM | NCI-H226 > 100 µM | OVCAR-8 > 100 µM | SN12C 86.3 µM | SW-620 90.6 µM | DU-145 43 µM | HOP-92 38.5 µM | NCI-H460 44.8 µM | UACC-62 62.4 µM | CAKI-1 42 µM | SK-MEL-2 27.5 µM | 786-0 > 100 µM | M14 31.5 µM | U-251 44 µM | EKVX 41.5 µM | RPMI-8226 31.9 µM | SF-295 45.3 µM | MDA-MB-435 28.2 µM
